Data from ChEMBL document CHEMBL1909046, “DrugMatrix in vitro pharmacology data”.

Assays:
[1] = molecular target: Carbonic anhydrase 2 (Homo sapiens, UniProt P00918); assay: DRUGMATRIX: Carbonic Anhydrase II enzyme inhibition (substrate: 4-Nitrophenyl acetate (4-NPA)); assay type: tissue-based, Erythrocyte; conditions: erythrocyte; Not Active = under 50% inhibition at 10 µM
[2] = molecular target: cGMP-specific 3',5'-cyclic phosphodiesterase (Homo sapiens, UniProt O76074); assay: DRUGMATRIX: Phosphodiesterase PDE5 enzyme inhibition (substrate: [3H]cGMP + cGMP); assay type: tissue-based; conditions: platelet; Not Active = under 50% inhibition at 10 µM
[3] = DRUGMATRIX: Glutamate, AMPA radioligand binding (ligand: [3H] AMPA); assay type: cell membranes, Rattus norvegicus, Wistar, Cerebral cortex, Membrane; conditions: Not Active = under 50% inhibition at 10 µM
[4] = molecular target: T1, Amine oxidase [flavin-containing] A (Homo sapiens, UniProt P21397); assay: DRUGMATRIX: Monoamine Oxidase MAO-A enzyme inhibition (substrate: Kynuramine); set-up: species or system BTI-TN-5B1-4; conditions: bti-tn-5b1-4; Not Active = under 50% inhibition at 10 µM
T1 sequence (P21397 whole entry): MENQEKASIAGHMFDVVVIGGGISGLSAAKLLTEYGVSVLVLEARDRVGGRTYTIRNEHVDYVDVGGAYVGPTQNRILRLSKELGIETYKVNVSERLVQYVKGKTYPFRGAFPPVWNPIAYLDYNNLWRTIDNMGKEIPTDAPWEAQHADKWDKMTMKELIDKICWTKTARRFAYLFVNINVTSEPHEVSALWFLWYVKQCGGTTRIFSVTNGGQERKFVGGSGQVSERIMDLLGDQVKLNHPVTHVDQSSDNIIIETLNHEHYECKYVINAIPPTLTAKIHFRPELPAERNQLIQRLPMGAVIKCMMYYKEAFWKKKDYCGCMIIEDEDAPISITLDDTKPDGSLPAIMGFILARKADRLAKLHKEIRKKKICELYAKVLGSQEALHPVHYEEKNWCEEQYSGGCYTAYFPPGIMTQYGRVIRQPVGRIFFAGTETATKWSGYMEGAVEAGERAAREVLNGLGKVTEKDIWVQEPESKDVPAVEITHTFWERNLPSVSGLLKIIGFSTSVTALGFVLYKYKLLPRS

[5] = molecular target: Sigma non-opioid intracellular receptor 1 (Homo sapiens, UniProt Q99720); assay: DRUGMATRIX: Sigma1 radioligand binding (ligand: [3H] Haloperidol); assay type: cell membranes, Jurkat, Membrane; conditions: jurkat; Not Active = under 50% inhibition at 10 µM
[6] = molecular target: T2, Leukotriene C4 synthase (Cavia porcellus, UniProt A6XA80); assay type: tissue-based, Lung;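 also: enzyme inhibition assay of leukotriene C4 synthase, using LTA4 as the substrate; in other assays of this panel Not Active means under 50% inhibition at 10 µM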
T2 sequence (A6XA80 whole entry): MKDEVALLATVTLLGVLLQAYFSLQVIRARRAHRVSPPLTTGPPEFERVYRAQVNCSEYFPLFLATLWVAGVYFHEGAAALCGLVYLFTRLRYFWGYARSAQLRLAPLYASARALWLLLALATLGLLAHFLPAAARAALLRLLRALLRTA

[7] = molecular target: Protein kinase C alpha type (Homo sapiens, UniProt P17252); assay type: cell-based; conditions: sf9;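 also: inhibition of PKCalpha kinase activity measured in an enzyme assay with histone as the phosphorylation substrate; in other assays of this panel Not Active means under 50% inhibition at 10 µM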
[8] = molecular target: Protein phosphatase 3 catalytic subunit alpha (Homo sapiens, UniProt Q08209); set-up: species or system Escherichia coli;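 also: inhibition of calcineurin (PP2B) enzyme activity, measured with DiFMUP as the substrate; in other assays of this panel Not Active means under 50% inhibition at 10 µM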

Chain of Sigma non-opioid intracellular receptor 1 (Q99720 whole entry): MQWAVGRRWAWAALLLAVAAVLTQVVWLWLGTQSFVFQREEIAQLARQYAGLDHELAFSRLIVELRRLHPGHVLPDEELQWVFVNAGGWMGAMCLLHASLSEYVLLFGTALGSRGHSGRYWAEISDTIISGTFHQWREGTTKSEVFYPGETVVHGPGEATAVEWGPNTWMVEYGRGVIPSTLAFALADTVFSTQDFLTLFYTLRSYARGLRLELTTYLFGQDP

Cc1ccc(N(CC2=NCCN2)c2cccc(O)c2)cc1 [PHENTOLAMINE]
Not Active: IC50 [1] | IC50 [2] | IC50 [3] | Ki [3] | IC50 [4] | IC50 [5] | IC50 [6] | IC50 [7] | IC50 [8]

Nc1nc2c(ncn2CCC(CO)CO)c(=O)[nH]1 [PENCICLOVIR]
Not Active: IC50 [1] | IC50 [2] | IC50 [3] | Ki [3] | IC50 [4] | IC50 [5] | IC50 [6] | IC50 [7] | IC50 [8]

CCOc1ccc(NC(C)=O)cc1 [PHENACETIN]
Not Active: IC50 [1] | IC50 [2] | IC50 [3] | Ki [3] | IC50 [4] | IC50 [5] | IC50 [6] | IC50 [7] | IC50 [8]

Cc1cc(C(C#N)c2ccc(Cl)cc2)c(Cl)cc1NC(=O)c1cc(I)cc(I)c1O (configuration not stated) [CLOSANTEL]
Not Active: IC50 [1] | IC50 [2] | IC50 [3] | Ki [3] | IC50 [4] | IC50 [5] | IC50 [6] | IC50 [7] | IC50 [8]

C[C@]12CC[C@@H]3c4ccc(O)cc4CC[C@H]3[C@@H]1CCC2=O [ESTRONE]
Not Active: IC50 [1] | IC50 [2] | IC50 [3] | Ki [3] | IC50 [4] | IC50 [5] | IC50 [6] | IC50 [7] | IC50 [8]

NC1=NC(=O)C(c2ccccc2)O1 (configuration not stated) [PEMOLINE]
Not Active: IC50 [1] | IC50 [2] | IC50 [3] | Ki [3] | IC50 [4] | IC50 [5] | IC50 [6] | IC50 [7] | IC50 [8]

CN(C)C(=O)Oc1cc(OC(=O)N(C)C)cc(C(O)CNC(C)(C)C)c1 (configuration not stated) [BAMBUTEROL]
Not Active: IC50 [1] | IC50 [2] | IC50 [3] | Ki [3] | IC50 [4] | IC50 [5] | IC50 [6] | IC50 [7] | IC50 [8]

C[C@H]1c2cccc(O)c2C(=O)C2=C(O)[C@]3(O)C(=O)C(C(N)=O)=C(O)[C@@H](N(C)C)[C@@H]3[C@@H](O)[C@@H]21.O [DOXYCYCLINE]
Not Active: IC50 [1] | IC50 [2] | IC50 [3] | Ki [3] | IC50 [4] | IC50 [5] | IC50 [6] | IC50 [7] | IC50 [8]

CC1(C)S[C@@H]2[C@H](NC(=O)Cc3ccccc3)C(=O)N2[C@H]1C(=O)O [PENICILLIN G]
Not Active: IC50 [1] | IC50 [2] | IC50 [3] | Ki [3] | IC50 [4] | IC50 [5] | IC50 [6] | IC50 [7] | IC50 [8]

C[C@H]1O[C@@H](O[C@H]2[C@@H](O)C[C@H](O[C@H]3[C@@H](O)C[C@H](O[C@H]4CC[C@@]5(C)[C@H](CC[C@@H]6[C@@H]5C[C@@H](O)[C@]5(C)[C@@H](C7=CC(=O)OC7)CC[C@]65O)C4)O[C@@H]3C)O[C@@H]2C)C[C@H](O)[C@@H]1O [DIGOXIN]
Not Active: IC50 [1] | IC50 [2] | IC50 [3] | Ki [3] | IC50 [4] | IC50 [5] | IC50 [6] | IC50 [7] | IC50 [8]

c1ccc2c(c1)c1cccc3ccc4cccc2c4c31 [BENZO[E]PYRENE]
Not Active: IC50 [1] | IC50 [2] | IC50 [3] | Ki [3] | IC50 [4] | IC50 [5] | IC50 [6] | IC50 [7] | IC50 [8]

Sc1ncnc2nc[nH]c12 [MERCAPTOPURINE ANHYDROUS]
Not Active: IC50 [1] | IC50 [2] | IC50 [3] | Ki [3] | IC50 [4] | IC50 [5] | IC50 [6] | IC50 [7] | IC50 [8]

O=c1oc2ccccc2c(O)c1Cc1c(O)c2ccccc2oc1=O [DICUMAROL]
Not Active: IC50 [1] | IC50 [2] | IC50 [3] | Ki [3] | IC50 [4] | IC50 [5] | IC50 [6] | IC50 [7] | IC50 [8]

Nc1nc(N)nc(-c2cc(Cl)ccc2Cl)n1.O=C(O)/C=C\C(=O)O [IRSOGLADINE MALEATE]
Not Active: IC50 [1] | IC50 [2] | IC50 [3] | Ki [3] | IC50 [4] | IC50 [5] | IC50 [6] | IC50 [7] | IC50 [8]

CC1(C)O[C@@H]2C[C@H]3[C@@H]4CCC5=CC(=O)CC[C@]5(C)[C@@]4(F)[C@@H](O)C[C@]3(C)[C@]2(C(=O)CCl)O1 [HALCINONIDE]
Not Active: IC50 [1] | IC50 [2] | IC50 [3] | Ki [3] | IC50 [4] | IC50 [5] | IC50 [6] | IC50 [7] | IC50 [8]

O=c1[nH]c(=O)n([C@H]2C[C@H](O)[C@@H](CO)O2)cc1I [IDOXURIDINE]
Not Active: IC50 [1] | IC50 [2] | IC50 [3] | Ki [3] | IC50 [4] | IC50 [5] | IC50 [6] | IC50 [7] | IC50 [8]

CC(C)C(=O)Nc1ccc([N+](=O)[O-])c(C(F)(F)F)c1 [FLUTAMIDE]
Not Active: IC50 [1] | IC50 [2] | IC50 [3] | Ki [3] | IC50 [4] | IC50 [5] | IC50 [6] | IC50 [7] | IC50 [8]

CCC1(c2ccc(N)cc2)CCC(=O)NC1=O (configuration not stated) [AMINOGLUTETHIMIDE]
Not Active: IC50 [1] | IC50 [2] | IC50 [3] | Ki [3] | IC50 [4] | IC50 [5] | IC50 [6] | IC50 [7] | Ki [8]
